Laboratory results taken from the NIST ThermoML archive (doi:10.1021/je400879v).

Experiment: molar heat capacity at constant pressure
Conditions: 101.33 kPa, Crystal

COC(=O)[C@H](Cc1ccccc1)NC(=O)[C@H](CC(C)C)NC(=O)[C@H](CCSC)NC=O [methyl formyl-L-methionyl-L-leucyl-L-phenylalaninate]
Conditions	molar heat capacity at constant pressure [J/K/mol]
5 K	1.99
6.02 K	2.6
6.13 K	2.71
6.28 K	2.91
6.43 K	3.21
6.59 K	3.52
6.73 K	3.88
6.88 K	4.29
7.04 K	4.56
7.19 K	4.97
7.35 K	5.42
7.52 K	5.83
7.66 K	6.28
7.84 K	6.73
7.98 K	7.23
8.17 K	7.72
8.33 K	8.13
8.5 K	8.58
8.7 K	9.08
8.84 K	9.48
8.98 K	9.89
9.13 K	10.3
9.3 K	10.7
9.45 K	11
9.62 K	11.5
9.78 K	11.8
9.95 K	12.3
10 K	12.5
10.27 K	13.2
10.63 K	14.1
11.04 K	15
11.45 K	16
11.88 K	17.1
12.29 K	18
12.79 K	19.2
13.24 K	20.4
13.71 K	21.7
14.18 K	22.7
14.65 K	24.1
15 K	25.1
15.12 K	25.3
15.6 K	26.78
15.99 K	28
16.64 K	29.85
17.1 K	31.58
17.62 K	33.24
18.1 K	34.79
18.78 K	37.21
19.22 K	38.75
19.72 K	40.59
20 K	41.76
21.41 K	47.32
23.4 K	55.2
25 K	61.13
25.67 K	63.45
27.96 K	71.89
30 K	79.28
30.29 K	80.5
32.65 K	88.71
35.04 K	96.64
37.44 K	105
39.87 K	112.9
40 K	113.3
42.32 K	120.6
44.78 K	127.7
47.26 K	134.1
49.75 K	139.9
50 K	140.8
52.01 K	145.9
54.78 K	153.1
57.3 K	160.1
59.87 K	167.1
60 K	167.6
62.41 K	174.3
64.96 K	181.3
66.9 K	186.5
70 K	194.3
70.06 K	194.1
72.6 K	201
75.15 K	206
77.73 K	212.1
80 K	216.1
80.1 K	216.1
82.93 K	221.7
85.5 K	227
88.2 K	232.3
90 K	236.3
90.6 K	238.4
90.85 K	237.1
93.51 K	243.4
96.19 K	248.8
98.88 K	253.3
100 K	256.4
101.58 K	258.9
104.28 K	264
106.98 K	269.4
109.69 K	274.9
110 K	275.6
112.38 K	279.5
115.08 K	284.3
117.78 K	289.3
120 K	292.9
120.47 K	293.3
123.16 K	297.5
125.85 K	302.5
128.53 K	306.7
130 K	309.1
131.22 K	310.6
133.99 K	316.2
136.67 K	319.1
139.35 K	323.5
140 K	324.7
142.02 K	328.1
144.68 K	332.5
147.35 K	336.5
150 K	340.1
150.01 K	340.6
152.68 K	344.7
155.33 K	348.5
157.99 K	352.9
160 K	355.6
160.64 K	357.2
163.28 K	361.6
165.92 K	365.7
168.56 K	368.7
170 K	371.3
171.19 K	373.7
174.6 K	377.8
176.09 K	381.5
179.5 K	385.9
180 K	387.3
182.11 K	390.6
184.71 K	394.8
187.31 K	398.3
189.9 K	402.2
190 K	403.7
192.49 K	407.4
195.07 K	411.8
197.64 K	416.1
200 K	420.3
200.2 K	420
202.74 K	423.8
205.27 K	428.2
207.77 K	433.6
210 K	437.2
210.28 K	436.5
212.77 K	442.5
215.23 K	446.4
217.6 K	450.8
220 K	454.3
220.02 K	455.6
222.4 K	459.1
224.71 K	463.1
227.02 K	467.1
229.33 K	471.1
230 K	471.6
231.66 K	475.2
234 K	478.4
236.36 K	484.2
238.72 K	488
240 K	489
241.09 K	490.9
243.46 K	493.2
245.83 K	498.9
248.18 K	503
250 K	506.5
250.5 K	507.1
252.78 K	509.6
254.83 K	514.5
257.07 K	518.7
259.3 K	523.3
260 K	524.3
261.5 K	528
263.68 K	532.6
265.84 K	535.2
267.99 K	539.2
270 K	542.4
270.16 K	543.2
272.34 K	547.3
274.5 K	552.1
276.67 K	554.9
277.1 K	557.8
279.97 K	561.2
280 K	561.1
282.11 K	564.9
284.23 K	568.8
286.34 K	571.5
288.8 K	578
290 K	580.7
290.49 K	581
292.53 K	584.6
294.54 K	587.8
296.39 K	591.6
298.15 K	597.6
298.4 K	596.2
300 K	601.6
300.24 K	601.4
302.09 K	606.6
304.77 K	614.7
307.42 K	619.1
309.83 K	624.8
310 K	624.4
312.19 K	631
314.41 K	635
316.68 K	638.7
318.91 K	645.4
320 K	649.7
321.09 K	652.2
323.22 K	661.1
325.19 K	665.5
327.12 K	669.6
329.13 K	677.2
330 K	678.4
330.96 K	681.9
332.75 K	688.8
334.5 K	691.9
335.18 K	695
336.88 K	700.5
338.54 K	704.4
340 K	711.3
340.17 K	710.6
341.74 K	717
343.27 K	723.9
344 K	726
